Literature values as cited in patent publication US7704724B1 (priority 2006, dated 2010).

How the values were obtained:
[1] = biological target: urease from Klebsiella aerogenes (Klebsiella aerogenes, UniProt P18314); details: read-out: fluoride inhibition constant (Ki)
[2] = biological target: Jack Bean urease (Canavalia ensiformis, UniProt P07374); details: read-out: fluoride inhibition constant (Ki)
Jack Bean urease, sequence (P07374 whole entry, looked up): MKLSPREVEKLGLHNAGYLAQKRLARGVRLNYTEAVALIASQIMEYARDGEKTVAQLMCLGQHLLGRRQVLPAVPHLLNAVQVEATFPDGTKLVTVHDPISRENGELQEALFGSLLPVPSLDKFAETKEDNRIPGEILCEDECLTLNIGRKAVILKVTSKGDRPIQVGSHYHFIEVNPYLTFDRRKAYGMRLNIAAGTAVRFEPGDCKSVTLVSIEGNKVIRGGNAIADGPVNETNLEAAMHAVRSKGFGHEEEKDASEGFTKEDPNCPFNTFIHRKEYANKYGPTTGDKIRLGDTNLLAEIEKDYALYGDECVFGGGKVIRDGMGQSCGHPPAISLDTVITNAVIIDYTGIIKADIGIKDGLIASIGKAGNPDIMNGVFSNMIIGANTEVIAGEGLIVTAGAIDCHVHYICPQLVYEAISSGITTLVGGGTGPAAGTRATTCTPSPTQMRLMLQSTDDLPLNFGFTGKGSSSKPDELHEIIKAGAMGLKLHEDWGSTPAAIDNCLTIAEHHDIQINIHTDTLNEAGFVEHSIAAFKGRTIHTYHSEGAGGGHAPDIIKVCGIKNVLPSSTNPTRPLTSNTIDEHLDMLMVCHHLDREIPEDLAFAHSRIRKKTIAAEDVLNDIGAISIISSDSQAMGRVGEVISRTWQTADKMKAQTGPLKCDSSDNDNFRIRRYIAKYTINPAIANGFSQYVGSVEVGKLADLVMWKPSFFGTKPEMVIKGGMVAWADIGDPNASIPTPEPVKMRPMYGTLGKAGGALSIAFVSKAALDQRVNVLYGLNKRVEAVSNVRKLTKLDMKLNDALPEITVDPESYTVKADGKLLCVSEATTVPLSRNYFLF

urease from Klebsiella aerogenes, sequence (P18314 whole entry): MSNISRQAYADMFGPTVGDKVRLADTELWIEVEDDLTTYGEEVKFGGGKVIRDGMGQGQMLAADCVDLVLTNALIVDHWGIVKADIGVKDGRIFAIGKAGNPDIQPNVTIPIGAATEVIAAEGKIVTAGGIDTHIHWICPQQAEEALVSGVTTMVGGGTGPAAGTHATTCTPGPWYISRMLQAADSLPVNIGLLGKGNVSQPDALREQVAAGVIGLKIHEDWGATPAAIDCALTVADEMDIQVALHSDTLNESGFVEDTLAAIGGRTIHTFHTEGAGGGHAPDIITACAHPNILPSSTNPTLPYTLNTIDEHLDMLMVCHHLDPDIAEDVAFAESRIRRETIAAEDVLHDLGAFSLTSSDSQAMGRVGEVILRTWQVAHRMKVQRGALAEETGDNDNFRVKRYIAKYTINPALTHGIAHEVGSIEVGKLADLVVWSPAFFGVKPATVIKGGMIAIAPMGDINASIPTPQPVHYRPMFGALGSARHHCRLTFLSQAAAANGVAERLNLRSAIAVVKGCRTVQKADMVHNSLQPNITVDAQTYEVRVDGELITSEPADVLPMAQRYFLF
urease from Klebsiella aerogenes, sequence (P18315 whole entry partner): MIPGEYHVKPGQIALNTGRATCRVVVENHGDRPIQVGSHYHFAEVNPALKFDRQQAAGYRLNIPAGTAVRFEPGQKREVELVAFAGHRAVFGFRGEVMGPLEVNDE
urease from Klebsiella aerogenes, sequence (P18316 whole entry partner): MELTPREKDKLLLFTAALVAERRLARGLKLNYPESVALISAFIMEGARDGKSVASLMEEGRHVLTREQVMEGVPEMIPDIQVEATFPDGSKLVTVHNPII

F [fluoride]
Ki [1]: 200 µM
Ki [2]: 1 mM
